Assay results reported in ChEMBL document CHEMBL6071181, “Discovery of ZLC491 as a Potent, Selective, and Orally Bioavailable CDK12/13 PROTAC Degrader” (J Med Chem, 2024).
Active and inactive are the calls of the source. No cut-off for these calls is given here.

Columns and labels:
[1] = molecular target: T1, Protein cereblon/Cyclin-dependent kinase 13 (Homo sapiens) (UniProt Q14004+Q96SW2); assay: PROTAC activity at CRBN/CDK13 in human HCC38 cells assessed as induction of CDK13 degradation incubated for 15 hrs by immunoblotting analysis; assay type: cell-based; conditions: dose 0.01-3 µM
[2] = molecular target: T2, Protein cereblon/Cyclin-dependent kinase 12 (Homo sapiens) (UniProt Q9NYV4+Q96SW2); assay: PROTAC activity at CRBN/CDK12 in human MDA-MB-436 cells assessed as induction of CDK12 degradation incubated for 15 hrs by immunoblotting analysis; assay type: cell-based; conditions: dose 0.01-3 µM
[3] = molecular target: T2, Protein cereblon/Cyclin-dependent kinase 12 (Homo sapiens); assay: PROTAC activity at CRBN/CDK12 in human MDA-MB-231 cells assessed as induction of CDK12 degradation at 1 uM pretreated with MLN4924 followed by compound addition and measured after 10 hrs by immunoblotting analysis; assay type: cell-based
[4] = molecular target: T2, Protein cereblon/Cyclin-dependent kinase 12 (Homo sapiens); assay: PROTAC activity at CRBN/CDK12 in human MDA-MB-231 cells assessed as induction of CDK12 degradation at 1 uM pretreated with bafilomycin followed by compound addition and measured after 10 hrs by immunoblotting analysis; assay type: cell-based
[5] = molecular target: T1, Protein cereblon/Cyclin-dependent kinase 13 (Homo sapiens); assay: PROTAC activity at CRBN/CDK13 in human MDA-MB-231 cells assessed as induction of CDK13 degradation at 1 uM pretreated with bafilomycin followed by compound addition and measured after 10 hrs by immunoblotting analysis; assay type: cell-based
[6] = molecular target: T2, Protein cereblon/Cyclin-dependent kinase 12 (Homo sapiens); assay: PROTAC activity at CRBN/CDK12 in human MDA-MB-231 cells assessed as induction of CDK12 degradation at 1 uM pretreated with pomalidomide followed by compound addition and measured after 10 hrs by immunoblotting analysis; assay type: cell-based
[7] = molecular target: T1, Protein cereblon/Cyclin-dependent kinase 13 (Homo sapiens); assay: PROTAC activity at CRBN/CDK13 in human MDA-MB-231 cells assessed as induction of CDK13 degradation at 1 uM pretreated with pomalidomide followed by compound addition and measured after 10 hrs by immunoblotting analysis; assay type: cell-based
MDA-MB-231 [8] = assay: Downregulation of BRCA2 mRNA expression in human MDA-MB-231 cells incubated for 12 hrs by RT-qPCR analysis; assay type: functional, cell-based; conditions: dose 60-300 nM
MDA-MB-231 [9] = assay: Downregulation of RAD51 protein level in human MDA-MB-231 cells at 0.1 to 0.5 uM incubated for 48 hrs by immunoblotting analysis; assay type: functional, cell-based; conditions: dose 0.1-0.5 µM
MDA-MB-231 [10] = assay: Synergistic antiproliferative activity against human MDA-MB-231 cells assessed as combination index at 1.5 uM incubated for 5 days in presence of cisplatin by CCK8 assay; assay type: functional; conditions: time 5 day
MDA-MB-231 [11] = assay: Synergistic antiproliferative activity against human MDA-MB-231 cells assessed as combination index at 7.5 uM incubated for 5 days in presence of olaparib by CCK8 assay; assay type: functional; conditions: time 5 day
[12] = molecular target: T1, Protein cereblon/Cyclin-dependent kinase 13 (Homo sapiens); assay: In vivo PROTAC activity at CRBN/CDK13 in female CB17SCID mouse model xenografted with human MDA-MB-231 cells assessed as reduction in CDK13 protein expression in tumor at 100 to 200 mg/kg, po administered for 5 days by immunoblotting analysis; assay type: functional, organism-based; conditions: dose 100-200 mg/kg, time 5.0 day
MDA-MB-231 [13] = assay: Antiproliferative activity against human MDA-MB-231 cells xenografted in female CB17SCID mouse model assessed as induction of tumor apoptosis at 200 mg/kg, po administered for 5 days by H and E staining based immunohistochemical analysis; assay type: functional, organism-based; conditions: time 5.0 day
[14] = Toxicity in female CB17SCID mouse model xenografted with human MDA-MB-231 cells assessed as body weight loss at 100 to 200 mg/kg, po administered for 5 days; assay type: organism-based; conditions: in vivo, 120 h, dose 100-200 mg/kg, time 5 day

T1 sequence (Q14004 whole entry, looked up): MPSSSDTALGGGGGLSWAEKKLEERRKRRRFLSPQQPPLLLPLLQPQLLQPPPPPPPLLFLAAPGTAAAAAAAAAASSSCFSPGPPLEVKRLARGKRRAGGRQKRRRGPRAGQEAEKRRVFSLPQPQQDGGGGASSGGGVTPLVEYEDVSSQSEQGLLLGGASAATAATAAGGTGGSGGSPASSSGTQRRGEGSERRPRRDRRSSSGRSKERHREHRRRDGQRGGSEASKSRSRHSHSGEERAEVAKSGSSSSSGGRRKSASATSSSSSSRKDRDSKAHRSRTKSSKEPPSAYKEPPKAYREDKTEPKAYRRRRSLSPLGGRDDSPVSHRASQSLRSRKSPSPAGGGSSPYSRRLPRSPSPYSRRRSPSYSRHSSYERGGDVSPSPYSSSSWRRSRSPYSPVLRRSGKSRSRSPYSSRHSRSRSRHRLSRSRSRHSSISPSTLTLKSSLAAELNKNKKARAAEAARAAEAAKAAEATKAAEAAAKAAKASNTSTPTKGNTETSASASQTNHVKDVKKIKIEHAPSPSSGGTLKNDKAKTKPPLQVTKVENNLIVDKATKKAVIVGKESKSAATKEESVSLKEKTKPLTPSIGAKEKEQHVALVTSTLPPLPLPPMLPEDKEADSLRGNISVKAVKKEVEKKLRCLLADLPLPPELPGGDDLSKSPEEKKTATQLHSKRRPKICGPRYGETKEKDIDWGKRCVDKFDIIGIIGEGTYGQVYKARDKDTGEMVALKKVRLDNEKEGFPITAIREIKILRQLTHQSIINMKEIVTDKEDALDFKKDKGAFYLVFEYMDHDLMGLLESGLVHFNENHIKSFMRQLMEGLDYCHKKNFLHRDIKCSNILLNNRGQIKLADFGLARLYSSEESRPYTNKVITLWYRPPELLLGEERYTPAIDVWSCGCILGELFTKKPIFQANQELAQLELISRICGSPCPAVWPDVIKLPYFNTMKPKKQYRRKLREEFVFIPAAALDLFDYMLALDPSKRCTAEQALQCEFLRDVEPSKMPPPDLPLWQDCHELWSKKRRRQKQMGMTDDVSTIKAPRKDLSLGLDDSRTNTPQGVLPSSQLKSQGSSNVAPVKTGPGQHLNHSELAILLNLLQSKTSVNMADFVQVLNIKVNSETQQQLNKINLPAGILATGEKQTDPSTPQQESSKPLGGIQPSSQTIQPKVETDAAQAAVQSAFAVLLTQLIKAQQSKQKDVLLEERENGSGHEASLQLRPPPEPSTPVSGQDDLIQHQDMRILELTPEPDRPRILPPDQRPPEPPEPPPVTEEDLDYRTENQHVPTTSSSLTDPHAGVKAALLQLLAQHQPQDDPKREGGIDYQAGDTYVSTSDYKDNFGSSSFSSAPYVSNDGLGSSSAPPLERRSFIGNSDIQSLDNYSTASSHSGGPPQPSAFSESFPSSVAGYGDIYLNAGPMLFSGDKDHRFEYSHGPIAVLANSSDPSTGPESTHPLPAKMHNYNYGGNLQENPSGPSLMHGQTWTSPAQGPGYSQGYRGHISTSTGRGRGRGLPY
T1 sequence (Q96SW2 whole entry, looked up): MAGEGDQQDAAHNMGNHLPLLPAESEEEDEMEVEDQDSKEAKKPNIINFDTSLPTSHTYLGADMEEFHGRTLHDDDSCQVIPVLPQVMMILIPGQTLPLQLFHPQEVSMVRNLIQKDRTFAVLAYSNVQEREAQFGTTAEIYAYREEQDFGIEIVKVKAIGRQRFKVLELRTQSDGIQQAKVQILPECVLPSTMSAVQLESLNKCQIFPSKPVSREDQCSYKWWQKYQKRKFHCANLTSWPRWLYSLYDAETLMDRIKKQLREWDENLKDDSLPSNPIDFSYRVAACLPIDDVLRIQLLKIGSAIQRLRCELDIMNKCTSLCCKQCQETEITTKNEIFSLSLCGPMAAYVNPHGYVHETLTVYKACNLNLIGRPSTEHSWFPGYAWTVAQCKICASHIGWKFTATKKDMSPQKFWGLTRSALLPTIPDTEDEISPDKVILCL
T2 sequence (Q96SW2 whole entry, looked up): as above
T2 sequence (Q9NYV4 whole entry, looked up): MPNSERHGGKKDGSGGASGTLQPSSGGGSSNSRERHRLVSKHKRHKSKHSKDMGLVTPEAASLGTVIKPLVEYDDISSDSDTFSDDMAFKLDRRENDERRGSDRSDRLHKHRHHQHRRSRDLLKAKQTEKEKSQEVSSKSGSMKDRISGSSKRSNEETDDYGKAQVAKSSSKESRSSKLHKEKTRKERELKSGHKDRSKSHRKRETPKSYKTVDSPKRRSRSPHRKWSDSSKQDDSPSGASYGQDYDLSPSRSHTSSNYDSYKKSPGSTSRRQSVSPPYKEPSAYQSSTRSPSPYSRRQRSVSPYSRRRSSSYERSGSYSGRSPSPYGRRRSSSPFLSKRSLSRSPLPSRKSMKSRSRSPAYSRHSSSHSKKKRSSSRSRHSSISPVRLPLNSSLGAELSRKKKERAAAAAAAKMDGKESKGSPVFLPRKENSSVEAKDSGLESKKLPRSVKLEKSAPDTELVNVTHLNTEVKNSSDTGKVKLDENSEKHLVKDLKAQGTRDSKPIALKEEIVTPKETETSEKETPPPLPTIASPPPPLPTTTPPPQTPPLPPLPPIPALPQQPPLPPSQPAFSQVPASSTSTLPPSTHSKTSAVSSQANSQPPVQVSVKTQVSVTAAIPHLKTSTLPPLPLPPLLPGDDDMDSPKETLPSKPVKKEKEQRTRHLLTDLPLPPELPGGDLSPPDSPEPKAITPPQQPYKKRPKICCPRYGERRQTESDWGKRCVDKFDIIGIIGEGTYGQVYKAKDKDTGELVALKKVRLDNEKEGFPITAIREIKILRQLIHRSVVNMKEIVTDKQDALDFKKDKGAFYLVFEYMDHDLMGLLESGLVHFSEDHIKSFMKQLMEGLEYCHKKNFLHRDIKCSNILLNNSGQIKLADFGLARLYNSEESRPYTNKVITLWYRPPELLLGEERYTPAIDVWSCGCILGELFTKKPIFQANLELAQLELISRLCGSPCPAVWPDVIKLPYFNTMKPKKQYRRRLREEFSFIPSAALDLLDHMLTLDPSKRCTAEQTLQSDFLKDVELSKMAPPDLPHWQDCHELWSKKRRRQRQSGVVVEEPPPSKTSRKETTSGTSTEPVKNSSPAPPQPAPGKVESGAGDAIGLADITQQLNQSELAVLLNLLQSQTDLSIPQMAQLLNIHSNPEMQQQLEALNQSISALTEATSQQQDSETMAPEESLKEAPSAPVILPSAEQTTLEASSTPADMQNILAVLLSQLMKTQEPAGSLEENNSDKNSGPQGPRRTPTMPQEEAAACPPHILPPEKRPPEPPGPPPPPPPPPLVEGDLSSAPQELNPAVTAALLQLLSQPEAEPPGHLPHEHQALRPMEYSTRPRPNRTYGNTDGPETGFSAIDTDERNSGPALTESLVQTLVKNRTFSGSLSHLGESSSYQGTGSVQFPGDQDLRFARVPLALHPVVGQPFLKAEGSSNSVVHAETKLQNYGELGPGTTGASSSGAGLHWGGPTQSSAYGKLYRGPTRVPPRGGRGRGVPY

N#Cc1ccc(N[C@H]2CC[C@H](N(C(=O)NCc3ccccc3)c3ccc(N4CCN(C5CCN(c6cc7c(cc6F)C(=O)N(C6CCC(=O)NC6=O)C7=O)CC5)CC4)cc3)CC2)nc1 (some centres undefined)
Activity [1]: Dose-Dependent Effect
Activity [2]: Dose-Dependent Effect
Activity [3]: inactive
Activity [4]: Active
Activity [5]: Active
Activity [6]: inactive
Activity [7]: inactive
Activity (MDA-MB-231 [8]): Dose-Dependent Effect
Activity (MDA-MB-231 [9]): Active
CI (MDA-MB-231 [10]): 0.17
CI (MDA-MB-231 [11]): 0.85
Activity [12]: Active
Activity (MDA-MB-231 [13]): Active
Activity [14]: Non-Toxic
